Measurements from the NIST ThermoML archive (doi:10.1021/acs.jced.9b00074).

Experiment: xn = mol fraction of the nth substance listed
Settings: 100 kPa, Liquid; for viscosity: Falling or rolling sphere viscometry; for mass density: Vibrating tube method

CC12CC3CC(C1)CC(C)(C3)C2 [1,3-dimethyladamantane] + C1C[C@@H]2[C@H]3CC[C@H](C3)[C@@H]2C1
Settings	mass density [kg/m3]	viscosity [mPa·s]
293.15 K, x2 = 0.0998	905.2	3.715
293.15 K, x2 = 0.2023	908.96	3.67
293.15 K, x2 = 0.2984	912.36	3.623
293.15 K, x2 = 0.3996	915.9	3.555
293.15 K, x2 = 0.4998	919.37	3.474
293.15 K, x2 = 0.5973	922.65	3.388
293.15 K, x2 = 0.7005	926.17	3.293
293.15 K, x2 = 0.8026	929.43	3.2
293.15 K, x2 = 0.9	932.64	3.114
298.15 K, x2 = 0.0998	901.59	3.316
298.15 K, x2 = 0.2023	905.3	3.277
298.15 K, x2 = 0.2984	908.68	3.238
298.15 K, x2 = 0.3996	912.18	3.181
298.15 K, x2 = 0.4998	915.61	3.116
298.15 K, x2 = 0.5973	918.86	3.045
298.15 K, x2 = 0.7005	922.34	2.965
298.15 K, x2 = 0.8026	925.59	2.885
298.15 K, x2 = 0.9	928.76	2.814
303.15 K, x2 = 0.0998	897.97	2.977
303.15 K, x2 = 0.2023	901.64	2.947
303.15 K, x2 = 0.2984	904.99	2.915
303.15 K, x2 = 0.3996	908.45	2.867
303.15 K, x2 = 0.4998	911.85	2.81
303.15 K, x2 = 0.5973	915.06	2.75
303.15 K, x2 = 0.7005	918.51	2.68
303.15 K, x2 = 0.8026	921.77	2.618
303.15 K, x2 = 0.9	924.88	2.555
308.15 K, x2 = 0.0998	894.36	2.687
308.15 K, x2 = 0.2023	897.98	2.666
308.15 K, x2 = 0.2984	901.29	2.637
308.15 K, x2 = 0.3996	904.71	2.601
308.15 K, x2 = 0.4998	908.08	2.547
308.15 K, x2 = 0.5973	911.26	2.495
308.15 K, x2 = 0.7005	914.67	2.438
308.15 K, x2 = 0.8026	917.91	2.385
308.15 K, x2 = 0.9	921	2.332
313.15 K, x2 = 0.0998	890.74	2.44
313.15 K, x2 = 0.2023	894.32	2.422
313.15 K, x2 = 0.2984	897.59	2.394
313.15 K, x2 = 0.3996	900.98	2.363
313.15 K, x2 = 0.4998	904.31	2.319
313.15 K, x2 = 0.5973	907.45	2.275
313.15 K, x2 = 0.7005	910.84	2.227
313.15 K, x2 = 0.8026	914.04	2.179
313.15 K, x2 = 0.9	917.12	2.136
318.15 K, x2 = 0.0998	887.12	2.222
318.15 K, x2 = 0.2023	890.65	2.209
318.15 K, x2 = 0.2984	893.89	2.185
318.15 K, x2 = 0.3996	897.24	2.157
318.15 K, x2 = 0.4998	900.53	2.121
318.15 K, x2 = 0.5973	903.65	2.081
318.15 K, x2 = 0.7005	906.99	2.042
318.15 K, x2 = 0.8026	910.17	2.002
318.15 K, x2 = 0.9	913.23	1.964
323.15 K, x2 = 0.0998	883.5	2.032
323.15 K, x2 = 0.2023	886.99	2.02
323.15 K, x2 = 0.2984	890.18	2.001
323.15 K, x2 = 0.3996	893.49	1.978
323.15 K, x2 = 0.4998	896.75	1.946
323.15 K, x2 = 0.5973	899.83	1.915
323.15 K, x2 = 0.7005	903.15	1.879
323.15 K, x2 = 0.8026	906.3	1.844
323.15 K, x2 = 0.9	909.33	1.812
328.15 K, x2 = 0.0998	879.87	1.867
328.15 K, x2 = 0.2023	883.31	1.857
328.15 K, x2 = 0.2984	886.47	1.839
328.15 K, x2 = 0.3996	889.74	1.819
328.15 K, x2 = 0.4998	892.97	1.794
328.15 K, x2 = 0.5973	896.02	1.764
328.15 K, x2 = 0.7005	899.3	1.734
328.15 K, x2 = 0.8026	902.43	1.704
328.15 K, x2 = 0.9	905.43	1.677
333.15 K, x2 = 0.0998	876.23	1.719
333.15 K, x2 = 0.2023	879.65	1.714
333.15 K, x2 = 0.2984	882.76	1.696
333.15 K, x2 = 0.3996	885.99	1.679
333.15 K, x2 = 0.4998	889.18	1.657
333.15 K, x2 = 0.5973	892.2	1.631
333.15 K, x2 = 0.7005	895.45	1.605
333.15 K, x2 = 0.8026	898.54	1.58
333.15 K, x2 = 0.9	901.52	1.557
